Experimental data as given in ChEMBL document CHEMBL5465560, “Selectivity Literature for EUbOPEN Chemogenomic Library” (2024).

Legend:
[1] = target: Cholecystokinin receptor type A (Homo sapiens, UniProt P32238); experiment: Selectivity interaction (Cholecystokinin A receptor binding assay, human recombinant ) EUB0000877a CCKAR
[2] = target: Ribosomal protein S6 kinase alpha-5 (Homo sapiens) (UniProt O75582); experiment: Selectivity interaction (Kinase panel (Invitrogen)) EUB0000639a RPS6KA5; conditions: at 200 nM
[3] = target: SRSF protein kinase 2 (Homo sapiens) (UniProt P78362); experiment: Selectivity interaction (SelectScreen profiling (Invitrogen)) EUB0000607a SRPK2; conditions: at 2 µM
[4] = target: MAP/microtubule affinity-regulating kinase 3 (Homo sapiens) (UniProt P27448); experiment: Selectivity interaction (KinomeScan (DiscoverX)) EUB0000695a MARK3; conditions: at 100 nM
[5] = target: T1, Dual serine/threonine and tyrosine protein kinase (Homo sapiens) (UniProt Q6XUX3); experiment: Selectivity interaction (KinomeScan (DiscoverX)) EUB0000045b DSTYK
T1 sequence (whole entry): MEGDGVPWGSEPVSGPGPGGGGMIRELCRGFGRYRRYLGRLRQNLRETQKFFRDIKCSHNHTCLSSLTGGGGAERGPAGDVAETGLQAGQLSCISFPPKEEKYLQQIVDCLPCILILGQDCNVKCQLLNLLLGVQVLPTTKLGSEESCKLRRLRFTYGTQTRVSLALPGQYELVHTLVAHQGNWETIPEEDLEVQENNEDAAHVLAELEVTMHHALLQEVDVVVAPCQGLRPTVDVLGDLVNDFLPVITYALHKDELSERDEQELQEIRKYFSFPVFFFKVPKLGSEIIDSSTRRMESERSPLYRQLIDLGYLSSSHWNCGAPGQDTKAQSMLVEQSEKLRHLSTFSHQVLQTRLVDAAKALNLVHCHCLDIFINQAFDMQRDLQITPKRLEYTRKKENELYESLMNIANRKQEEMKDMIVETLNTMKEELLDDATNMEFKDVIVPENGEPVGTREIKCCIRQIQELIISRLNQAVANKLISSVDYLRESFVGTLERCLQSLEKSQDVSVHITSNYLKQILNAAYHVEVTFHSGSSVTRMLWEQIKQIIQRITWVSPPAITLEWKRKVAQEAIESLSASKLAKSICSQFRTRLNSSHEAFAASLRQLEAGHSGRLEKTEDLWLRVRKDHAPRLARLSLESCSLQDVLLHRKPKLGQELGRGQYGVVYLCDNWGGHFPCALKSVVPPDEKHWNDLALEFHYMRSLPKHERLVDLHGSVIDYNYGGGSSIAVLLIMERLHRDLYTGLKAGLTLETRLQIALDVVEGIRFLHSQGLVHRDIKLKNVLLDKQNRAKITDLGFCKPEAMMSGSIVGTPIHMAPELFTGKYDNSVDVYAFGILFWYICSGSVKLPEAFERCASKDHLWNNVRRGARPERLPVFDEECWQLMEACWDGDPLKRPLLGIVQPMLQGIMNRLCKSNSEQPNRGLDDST

[6] = target: T2, Mitogen-activated protein kinase kinase kinase kinase 2 (Homo sapiens) (UniProt Q12851); experiment: Selectivity interaction (KinomeScan (DiscoverX)) EUB0000045b MAP4K2
T2 sequence (whole entry): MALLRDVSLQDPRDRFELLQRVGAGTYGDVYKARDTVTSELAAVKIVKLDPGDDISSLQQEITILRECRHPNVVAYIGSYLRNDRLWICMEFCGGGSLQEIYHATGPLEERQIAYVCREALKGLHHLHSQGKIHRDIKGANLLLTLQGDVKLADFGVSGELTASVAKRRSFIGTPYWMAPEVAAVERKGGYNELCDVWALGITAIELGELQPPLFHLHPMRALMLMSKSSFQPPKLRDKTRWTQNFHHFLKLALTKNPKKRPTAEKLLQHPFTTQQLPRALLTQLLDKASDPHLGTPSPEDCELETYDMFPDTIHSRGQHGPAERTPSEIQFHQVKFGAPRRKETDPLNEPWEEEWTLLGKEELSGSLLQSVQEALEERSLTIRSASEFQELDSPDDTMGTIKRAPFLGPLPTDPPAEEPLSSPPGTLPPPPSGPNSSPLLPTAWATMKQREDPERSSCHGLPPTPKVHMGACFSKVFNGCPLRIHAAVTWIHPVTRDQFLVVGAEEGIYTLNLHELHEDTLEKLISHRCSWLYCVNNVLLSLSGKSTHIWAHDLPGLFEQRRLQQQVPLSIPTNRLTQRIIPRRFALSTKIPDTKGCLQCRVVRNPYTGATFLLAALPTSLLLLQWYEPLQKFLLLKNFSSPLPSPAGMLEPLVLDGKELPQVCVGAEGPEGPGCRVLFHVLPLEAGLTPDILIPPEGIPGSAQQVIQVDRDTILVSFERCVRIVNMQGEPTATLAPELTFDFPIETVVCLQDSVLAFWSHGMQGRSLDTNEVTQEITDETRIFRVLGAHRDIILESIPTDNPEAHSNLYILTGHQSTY

[7] = target: Mitogen-activated protein kinase kinase kinase 1 (Homo sapiens, UniProt Q13233); experiment: Selectivity interaction (Ambit KINOMEscan and KiNATiv profiling in Jurkat cells) EUB0000090b MAP3K1; type: cell-based; conditions: at 1 µM
[8] = target: T3, Cyclin-dependent kinase-like 2 (Homo sapiens) (UniProt Q92772); experiment: Selectivity interaction (KinomeScan (DiscoverX)) EUB0001619a CDKL2; conditions: at 1 µM
T3 sequence (whole entry): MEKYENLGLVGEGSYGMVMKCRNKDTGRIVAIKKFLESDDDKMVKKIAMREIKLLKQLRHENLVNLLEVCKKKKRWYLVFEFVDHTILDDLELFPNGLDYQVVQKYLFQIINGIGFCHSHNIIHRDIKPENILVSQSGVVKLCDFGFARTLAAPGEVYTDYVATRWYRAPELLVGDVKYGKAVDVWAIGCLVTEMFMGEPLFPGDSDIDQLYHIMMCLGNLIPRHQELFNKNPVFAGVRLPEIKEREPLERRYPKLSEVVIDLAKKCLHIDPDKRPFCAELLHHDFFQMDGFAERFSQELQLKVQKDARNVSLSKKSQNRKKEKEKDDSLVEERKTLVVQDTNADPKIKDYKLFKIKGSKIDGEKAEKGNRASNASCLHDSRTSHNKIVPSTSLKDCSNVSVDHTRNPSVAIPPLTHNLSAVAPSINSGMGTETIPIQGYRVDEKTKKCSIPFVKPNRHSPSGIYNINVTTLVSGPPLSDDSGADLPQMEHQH

Sequence of Mitogen-activated protein kinase kinase kinase 1 (Q13233 whole entry): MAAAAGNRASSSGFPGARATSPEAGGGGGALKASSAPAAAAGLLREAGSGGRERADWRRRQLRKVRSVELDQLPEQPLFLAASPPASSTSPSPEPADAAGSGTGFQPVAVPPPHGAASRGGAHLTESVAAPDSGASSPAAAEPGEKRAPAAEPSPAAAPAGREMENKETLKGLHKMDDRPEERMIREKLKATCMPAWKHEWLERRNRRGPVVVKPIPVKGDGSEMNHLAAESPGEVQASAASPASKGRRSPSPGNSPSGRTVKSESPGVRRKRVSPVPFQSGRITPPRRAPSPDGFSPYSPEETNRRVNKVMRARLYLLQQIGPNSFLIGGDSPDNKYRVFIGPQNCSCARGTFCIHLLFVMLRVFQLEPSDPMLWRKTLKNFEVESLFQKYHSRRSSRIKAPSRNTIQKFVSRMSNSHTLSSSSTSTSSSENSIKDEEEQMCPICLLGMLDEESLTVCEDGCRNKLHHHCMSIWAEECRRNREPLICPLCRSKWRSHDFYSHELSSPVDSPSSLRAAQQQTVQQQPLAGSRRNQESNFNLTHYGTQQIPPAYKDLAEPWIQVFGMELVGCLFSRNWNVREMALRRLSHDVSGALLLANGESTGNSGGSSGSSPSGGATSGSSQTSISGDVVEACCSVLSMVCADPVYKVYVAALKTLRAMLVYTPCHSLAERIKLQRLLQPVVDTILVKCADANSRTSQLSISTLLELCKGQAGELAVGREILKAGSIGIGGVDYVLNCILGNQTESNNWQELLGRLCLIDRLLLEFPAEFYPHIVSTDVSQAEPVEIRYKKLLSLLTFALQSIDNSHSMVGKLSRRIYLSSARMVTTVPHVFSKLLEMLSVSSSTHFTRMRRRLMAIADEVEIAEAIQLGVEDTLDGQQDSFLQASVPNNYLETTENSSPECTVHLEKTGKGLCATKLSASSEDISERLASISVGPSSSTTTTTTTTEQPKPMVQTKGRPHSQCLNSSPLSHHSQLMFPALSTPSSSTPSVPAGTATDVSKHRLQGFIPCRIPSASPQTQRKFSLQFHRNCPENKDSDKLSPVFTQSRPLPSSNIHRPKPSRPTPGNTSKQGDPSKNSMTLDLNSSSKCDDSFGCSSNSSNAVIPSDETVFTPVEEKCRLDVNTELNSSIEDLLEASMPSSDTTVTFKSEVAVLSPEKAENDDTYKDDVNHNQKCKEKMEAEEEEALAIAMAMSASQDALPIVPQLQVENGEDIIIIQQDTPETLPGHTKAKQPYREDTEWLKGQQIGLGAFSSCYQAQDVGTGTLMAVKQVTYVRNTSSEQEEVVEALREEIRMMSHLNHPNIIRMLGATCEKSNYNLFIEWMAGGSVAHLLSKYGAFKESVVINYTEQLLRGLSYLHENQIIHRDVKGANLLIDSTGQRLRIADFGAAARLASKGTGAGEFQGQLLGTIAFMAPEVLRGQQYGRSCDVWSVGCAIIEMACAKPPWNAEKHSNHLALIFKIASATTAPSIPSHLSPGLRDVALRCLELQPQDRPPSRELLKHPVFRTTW
Sequence of Cholecystokinin receptor type A (P32238 whole entry): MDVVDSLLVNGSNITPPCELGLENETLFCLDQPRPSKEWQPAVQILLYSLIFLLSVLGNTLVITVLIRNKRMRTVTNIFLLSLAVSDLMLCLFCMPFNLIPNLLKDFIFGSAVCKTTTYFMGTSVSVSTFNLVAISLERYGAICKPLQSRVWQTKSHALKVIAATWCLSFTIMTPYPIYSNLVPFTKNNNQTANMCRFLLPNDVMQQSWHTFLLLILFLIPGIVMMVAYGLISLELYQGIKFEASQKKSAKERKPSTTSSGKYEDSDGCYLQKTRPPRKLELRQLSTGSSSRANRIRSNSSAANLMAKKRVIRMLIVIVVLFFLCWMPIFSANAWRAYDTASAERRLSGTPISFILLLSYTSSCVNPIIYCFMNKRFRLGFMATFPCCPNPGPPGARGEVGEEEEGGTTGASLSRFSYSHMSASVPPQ
Sequence of MAP/microtubule affinity-regulating kinase 3 (Homo sapiens) (P27448 whole entry, looked up): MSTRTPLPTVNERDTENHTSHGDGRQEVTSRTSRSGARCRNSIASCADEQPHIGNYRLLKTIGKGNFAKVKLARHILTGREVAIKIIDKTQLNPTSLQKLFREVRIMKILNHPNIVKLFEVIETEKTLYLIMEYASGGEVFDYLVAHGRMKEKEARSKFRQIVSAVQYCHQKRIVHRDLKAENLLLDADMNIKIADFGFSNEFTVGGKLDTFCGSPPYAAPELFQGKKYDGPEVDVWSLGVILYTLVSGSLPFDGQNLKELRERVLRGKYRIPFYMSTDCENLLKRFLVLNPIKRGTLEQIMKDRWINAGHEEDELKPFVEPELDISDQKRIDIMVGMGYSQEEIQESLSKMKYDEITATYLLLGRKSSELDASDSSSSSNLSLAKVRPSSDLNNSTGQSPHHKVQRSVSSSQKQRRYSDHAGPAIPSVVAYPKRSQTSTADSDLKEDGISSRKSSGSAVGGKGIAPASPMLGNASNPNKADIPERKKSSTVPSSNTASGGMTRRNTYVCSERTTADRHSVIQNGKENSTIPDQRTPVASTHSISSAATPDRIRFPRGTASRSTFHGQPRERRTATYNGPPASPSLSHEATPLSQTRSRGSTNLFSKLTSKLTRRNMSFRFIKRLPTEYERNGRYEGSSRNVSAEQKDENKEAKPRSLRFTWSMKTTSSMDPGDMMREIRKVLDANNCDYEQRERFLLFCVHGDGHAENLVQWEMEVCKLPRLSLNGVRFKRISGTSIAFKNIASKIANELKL
Sequence of SRSF protein kinase 2 (Homo sapiens) (P78362 whole entry, looked up): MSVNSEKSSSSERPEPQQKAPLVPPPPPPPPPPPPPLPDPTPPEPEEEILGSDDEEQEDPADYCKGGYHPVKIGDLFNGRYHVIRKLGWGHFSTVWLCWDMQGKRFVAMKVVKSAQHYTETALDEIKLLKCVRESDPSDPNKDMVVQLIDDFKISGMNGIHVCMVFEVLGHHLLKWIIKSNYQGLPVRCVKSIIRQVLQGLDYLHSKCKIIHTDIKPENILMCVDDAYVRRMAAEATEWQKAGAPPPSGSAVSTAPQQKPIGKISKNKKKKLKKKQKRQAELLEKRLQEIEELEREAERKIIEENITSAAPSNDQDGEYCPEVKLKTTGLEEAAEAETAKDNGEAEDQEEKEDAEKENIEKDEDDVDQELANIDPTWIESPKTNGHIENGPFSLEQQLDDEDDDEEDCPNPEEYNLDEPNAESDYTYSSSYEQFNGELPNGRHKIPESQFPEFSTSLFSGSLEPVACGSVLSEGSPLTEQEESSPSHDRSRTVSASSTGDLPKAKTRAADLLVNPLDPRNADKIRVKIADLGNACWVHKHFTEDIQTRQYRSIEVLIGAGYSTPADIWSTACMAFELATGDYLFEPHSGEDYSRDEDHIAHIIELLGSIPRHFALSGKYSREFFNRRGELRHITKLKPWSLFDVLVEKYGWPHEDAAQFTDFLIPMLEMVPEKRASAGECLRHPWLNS
Sequence of Ribosomal protein S6 kinase alpha-5 (Homo sapiens) (O75582 whole entry, looked up): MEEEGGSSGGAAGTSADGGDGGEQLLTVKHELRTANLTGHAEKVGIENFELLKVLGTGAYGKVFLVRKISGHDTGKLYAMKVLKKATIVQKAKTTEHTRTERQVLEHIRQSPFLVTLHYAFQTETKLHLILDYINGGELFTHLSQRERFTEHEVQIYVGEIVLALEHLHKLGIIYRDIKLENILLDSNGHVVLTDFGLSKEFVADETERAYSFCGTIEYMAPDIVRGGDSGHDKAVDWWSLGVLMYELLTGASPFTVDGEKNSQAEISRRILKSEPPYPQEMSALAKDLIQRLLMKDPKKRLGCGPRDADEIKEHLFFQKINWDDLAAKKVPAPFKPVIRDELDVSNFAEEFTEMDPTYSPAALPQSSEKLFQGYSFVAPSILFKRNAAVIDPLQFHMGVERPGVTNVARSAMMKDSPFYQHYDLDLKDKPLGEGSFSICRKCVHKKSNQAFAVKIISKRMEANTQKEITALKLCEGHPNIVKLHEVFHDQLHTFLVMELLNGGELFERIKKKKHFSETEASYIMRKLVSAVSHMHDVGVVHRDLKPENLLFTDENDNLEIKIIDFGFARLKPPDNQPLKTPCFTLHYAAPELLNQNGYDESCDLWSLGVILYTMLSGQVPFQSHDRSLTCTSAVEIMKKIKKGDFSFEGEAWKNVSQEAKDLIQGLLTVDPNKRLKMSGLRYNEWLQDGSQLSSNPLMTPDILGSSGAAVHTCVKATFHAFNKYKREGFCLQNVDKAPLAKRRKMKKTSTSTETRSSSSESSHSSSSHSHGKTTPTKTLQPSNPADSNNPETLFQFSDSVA

## CCC(=O)N1CC[C@H](Nc2ncnc3c2CN(c2cnc(OC)c(C(F)(F)F)c2)CC3)C1 [LENIOLISIB]
[1]
  IC50: > 30 µM

## CC[C@@H]1[C@H](F)C(=O)N[C@@H]1COc1nccc2cc(C(N)=O)c(OC)cc12 [ZIMLOVISERTIB]
[2]
  % of inhibition: 0.449%

## CNC(=O)Nc1ccc(-c2nc(N3CC4CCC(C3)O4)c3cnn(C4CCC5(CC4)OCCO5)c3n2)cc1
[3]
  % of inhibition: 1%

## Cc1cc(F)c(C(=O)Nc2cccc(-c3nncn3C(C)C)n2)cc1-n1cnc(C2CC2)c1
[4]
  % of control: 90%

## C=CC(=O)Nc1cc(-n2c(=O)ccc3cnc4ccc(-c5ccc(NS(C)(=O)=O)cc5)cc4c32)ccc1C
[5]; at 1 µM
  % of control: 100%
[5]; at 10 µM
  % of control: 100%
[6]; at 1 µM
  % of control: 100%
[6]; at 10 µM
  % of control: 89%

## CN(C)C/C=C/C(=O)Nc1ccc(C(=O)N2CCCC(Nc3ncc(Cl)c(-c4c[nH]c5ccccc45)n3)C2)cc1 (stereo not given)
[7]
  % of control: 82%

## N#Cc1cccc(-c2c[nH]c3ncnc(N4CCOCC4)c23)c1
[8]
  % of control: 98%
